The Emax is the maximal effect, on the per cent scale that the assay sets.

The values below come from ChEMBL document CHEMBL4308834, “Novel Allosteric Activators for Ferroptosis Regulator Glutathione Peroxidase 4” (J Med Chem, 2018).

Calls of active or inactive are those of the source. No cut-off for these calls is given here.

Experiment [1] addresses T1, Phospholipid hydroperoxide glutathione peroxidase GPX4 (Homo sapiens) (UniProt P36969).
T1 sequence (whole entry): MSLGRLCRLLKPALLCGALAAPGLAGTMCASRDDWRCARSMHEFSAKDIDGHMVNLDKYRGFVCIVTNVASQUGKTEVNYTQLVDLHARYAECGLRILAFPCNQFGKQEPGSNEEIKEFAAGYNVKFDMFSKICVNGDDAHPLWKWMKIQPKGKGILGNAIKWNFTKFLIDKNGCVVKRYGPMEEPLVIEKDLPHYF
Put plainly: Activation of GPX4 in A23187-stimulated human PMN leukocytes assessed as increase in 15-HETE preincubated for 15 mins followed by A23187 addition and measured after 120 mins by LC-MS analysis.

The target in experiment [2] is Prostaglandin G/H synthase 1 (Homo sapiens) (UniProt P23219). Put plainly: Inhibition of COX1 (unknown origin) at 500 uM preincubated for 15 mins followed by arachidonic acid substrate addition in presence of TMPD by spectrophotometric method.
The species named for another experiment is Homo sapiens. Put plainly: Activation of recombinant His-tagged human cytosolic GPX4 U46C mutant expressed in Escherichia coli M15 assessed as increase in oxidized glutathione-mediated oxidation of NADPH to NADP+ at 0.4 to 250 uM using tert-butyl hydroperoxide as substrate preincubated for 5 mins followed by substrate addition measured for 6 mins by glutathione reductase enzyme coupled fluorescence assay relative to control.

For experiment [3], the target named is T1, Phospholipid hydroperoxide glutathione peroxidase GPX4 (Homo sapiens). The experiment is described as follows: Activation of GPX4 (unknown origin) expressed in HEK293T cells harboring luc2P/NF-kBRE/Hygro plasmid assessed as inhibition of IL1beta-stimulated NFkB activation preincubated for 30 mins followed by […] and measured after 6 hrs by luciferase reporter gene assay. It is filed as cell-based.

Experiment [4] has the same target. Put plainly: Activation of GPX4 in A23187-stimulated human PMN leukocytes assessed as increase in 5-HETE/LTB4 ratio preincubated for 15 mins followed by A23187 addition and measured after 120 mins by LC-MS analysis.
Experiment [5] has as its target T2, Prostaglandin G/H synthase 2 (Homo sapiens) (UniProt P35354).
T2 sequence (whole entry): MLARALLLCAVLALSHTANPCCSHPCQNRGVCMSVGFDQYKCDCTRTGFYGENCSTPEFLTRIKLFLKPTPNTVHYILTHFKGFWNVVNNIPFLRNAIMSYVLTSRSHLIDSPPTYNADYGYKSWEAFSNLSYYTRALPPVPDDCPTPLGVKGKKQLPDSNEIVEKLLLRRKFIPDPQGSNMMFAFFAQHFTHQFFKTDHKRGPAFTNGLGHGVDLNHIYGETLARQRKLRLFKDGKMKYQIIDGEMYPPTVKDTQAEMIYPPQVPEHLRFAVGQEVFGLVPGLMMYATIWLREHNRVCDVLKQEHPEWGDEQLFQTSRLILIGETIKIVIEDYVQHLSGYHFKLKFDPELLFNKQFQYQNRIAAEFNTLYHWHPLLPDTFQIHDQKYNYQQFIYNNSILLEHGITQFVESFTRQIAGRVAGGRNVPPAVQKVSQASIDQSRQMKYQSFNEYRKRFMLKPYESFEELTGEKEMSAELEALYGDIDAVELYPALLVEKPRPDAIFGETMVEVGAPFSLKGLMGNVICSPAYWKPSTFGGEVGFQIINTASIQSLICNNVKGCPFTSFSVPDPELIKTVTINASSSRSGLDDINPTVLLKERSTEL
The experiment is described as follows: Inhibition of COX2 (unknown origin) at 500 uM preincubated for 15 mins followed by arachidonic acid substrate addition in presence of TMPD by spectrophotometric method.

Experiment [6] has as its target T1, Phospholipid hydroperoxide glutathione peroxidase GPX4 (Homo sapiens). The experiment is described as follows: Activation of GPX4 in human HT1080 cells assessed as inhibition of erastin-induced ferroptosis at 125 uM preincubated for 30 mins followed by erastin addition measured after 24 hrs by MTS assay. It is filed as cell-based. For orientation: Tetrazolium assays rely on reduction of a dye to a coloured formazan, in cell work by metabolically active cells.

Experiment [7] has the same target. Put plainly: Activation of GPX4 (unknown origin) expressed in HEK293T cells harboring luc2P/NF-kBRE/Hygro plasmid assessed as inhibition of TNFalpha-stimulated NFkB activation preincubated for 30 mins followed by TNFalpha addition and measured after 6 hrs by luciferase reporter gene assay. The experiment is classed as cell-based. (Reporter assays use an easily measured gene product as a stand-in for the process of interest.)

Experiment [8] can be described thus: Antioxidant activity assessed as DPPH radical scavenging activity at 500 uM. The experiment is classed as functional. Background: The DPPH test is a chemical assay of radical scavenging.
The target in experiment [9] is Phospholipid hydroperoxide glutathione peroxidase GPX4 (Mus musculus) (UniProt O70325). The experiment is described as follows: Activation of GPX4 in MEF assessed as increase in oxidized glutathione-mediated oxidation of NADPH to NADP+ using tert-butyl hydroperoxide as substrate preincubated for 5 mins followed by substrate addition measured for 6 mins by glutathione reductase enzyme coupled fluorescence assay. The experiment is classed as cell-based.

Experiment [10] concerns the target T3, Polyunsaturated fatty acid lipoxygenase ALOX12 (Homo sapiens) (UniProt P18054).
T3 sequence (whole entry): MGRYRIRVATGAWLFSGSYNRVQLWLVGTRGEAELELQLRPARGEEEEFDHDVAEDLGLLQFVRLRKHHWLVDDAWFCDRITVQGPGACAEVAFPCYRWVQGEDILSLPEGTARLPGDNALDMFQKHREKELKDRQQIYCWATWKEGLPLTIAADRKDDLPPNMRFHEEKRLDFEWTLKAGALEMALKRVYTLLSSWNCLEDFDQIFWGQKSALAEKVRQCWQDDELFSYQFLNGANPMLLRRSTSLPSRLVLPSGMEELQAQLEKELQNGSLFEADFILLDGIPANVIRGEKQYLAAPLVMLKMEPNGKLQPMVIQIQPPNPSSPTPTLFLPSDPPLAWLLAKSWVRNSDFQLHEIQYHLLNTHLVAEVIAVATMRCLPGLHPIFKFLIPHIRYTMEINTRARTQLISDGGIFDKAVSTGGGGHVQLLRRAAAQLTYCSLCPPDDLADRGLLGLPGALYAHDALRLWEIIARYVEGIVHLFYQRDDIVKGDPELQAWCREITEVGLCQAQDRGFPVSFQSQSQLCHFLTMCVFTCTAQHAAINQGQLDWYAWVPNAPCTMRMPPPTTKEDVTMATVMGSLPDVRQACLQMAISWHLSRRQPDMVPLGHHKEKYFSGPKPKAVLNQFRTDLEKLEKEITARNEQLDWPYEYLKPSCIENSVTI
Put plainly: Inhibition of 12-LOX (unknown origin) at 500 uM preincubated for 1 mins followed by arachidonic acid substrate addition by spectrophotometric method.

Phospholipid hydroperoxide glutathione peroxidase GPX4 (Mus musculus), sequence (O70325 whole entry): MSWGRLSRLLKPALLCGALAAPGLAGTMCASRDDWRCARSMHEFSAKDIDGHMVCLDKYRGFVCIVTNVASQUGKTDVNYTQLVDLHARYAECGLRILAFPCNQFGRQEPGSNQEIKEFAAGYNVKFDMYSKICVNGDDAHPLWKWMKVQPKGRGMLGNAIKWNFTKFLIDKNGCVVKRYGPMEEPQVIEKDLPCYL
Prostaglandin G/H synthase 1 (Homo sapiens), sequence (P23219 whole entry): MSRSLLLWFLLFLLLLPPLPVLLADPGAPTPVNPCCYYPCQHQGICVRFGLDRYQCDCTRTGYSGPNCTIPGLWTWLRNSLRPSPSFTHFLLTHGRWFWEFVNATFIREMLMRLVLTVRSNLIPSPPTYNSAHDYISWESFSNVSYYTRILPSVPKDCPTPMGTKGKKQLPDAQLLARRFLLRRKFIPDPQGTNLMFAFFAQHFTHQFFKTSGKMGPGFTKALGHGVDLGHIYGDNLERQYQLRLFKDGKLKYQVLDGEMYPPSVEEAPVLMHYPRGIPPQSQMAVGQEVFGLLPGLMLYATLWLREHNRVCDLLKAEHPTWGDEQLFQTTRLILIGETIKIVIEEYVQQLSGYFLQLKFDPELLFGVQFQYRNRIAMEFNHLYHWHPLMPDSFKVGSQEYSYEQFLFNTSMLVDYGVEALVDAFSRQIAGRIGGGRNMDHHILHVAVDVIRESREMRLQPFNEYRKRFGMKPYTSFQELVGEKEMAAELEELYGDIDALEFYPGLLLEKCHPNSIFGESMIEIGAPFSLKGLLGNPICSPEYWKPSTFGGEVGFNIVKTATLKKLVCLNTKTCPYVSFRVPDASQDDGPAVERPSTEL

Take `NS(=O)(=O)c1ccc(NC(S)=NCc2ccc(Cl)cc2)cc1`: the Activity entry in experiment [1], in experiment [4] and in [9] was “Dose-dependent effect” each time. The inhibition result in experiment [2], in experiment [5] and in experiment [10] was “inactive” each time. Further, the Emax in the experiment listed under Homo sapiens stood at 263%. For the same molecule, the inhibition entry in [3] and in [7] was “Dose-dependent effect” each time. The inhibition entry in experiment [6] was “Active”. Also, the outcome in experiment [8] was inactive.
